Publication PMC11489250, “Optimized methods for measuring competitive binding of chemical substances to thyroid hormone distributor proteins transthyretin and thyroxine binding globulin” (Archives of Toxicology, 2024)
Read-outs that look alike come from different tables or passages of the source.

Key:
[1] = molecular target: T1, thyroxine-binding globulin (TBG) (Homo sapiens, UniProt P05543); test: Competitive TBG-binding assay with FITC-T4 (fluorescence polarization readout); details: 5 nM FITC-T4, 10 nM TBG, RT
T1 construct: purchased Bio-rad Laboratories, Inc. (Veenendaal, The Netherlands)
T1 sequence (P05543 21-415): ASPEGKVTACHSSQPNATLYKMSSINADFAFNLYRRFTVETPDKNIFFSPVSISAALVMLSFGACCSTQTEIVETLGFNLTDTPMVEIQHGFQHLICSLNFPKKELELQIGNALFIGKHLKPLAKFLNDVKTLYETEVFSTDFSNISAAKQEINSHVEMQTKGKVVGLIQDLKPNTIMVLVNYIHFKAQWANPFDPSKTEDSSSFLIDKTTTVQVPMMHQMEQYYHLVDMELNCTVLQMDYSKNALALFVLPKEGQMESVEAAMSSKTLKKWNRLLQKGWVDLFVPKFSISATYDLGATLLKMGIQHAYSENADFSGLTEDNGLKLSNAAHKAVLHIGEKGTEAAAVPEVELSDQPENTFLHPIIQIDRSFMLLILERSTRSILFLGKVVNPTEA
Experimental: Prepared plates were first shaken for 5 min and then incubated for 15 min at room temperature before being analysed by the microplate reader at FP mode (CLARIOstar Plus, BMG LABTECH).
Accordingly, dilution series of all compounds were prepared in DMSO. First, 24 µL Tris–HCl buffer was pipetted to the wells, followed by 1 µL of the compound stock solution. […] Solvent (DMSO) concentrations in all conditions were 1%. The plates were shaken for 5 min on a plate shaker, followed by an incubation for 15 min at room temperature.
The adjusted polarization was set to a reference value of 35 mP. The adjustment gain values ranged from 1900 to 2200. The plate layout of TBG-binding assay is provided in Supplementary Information file (Section 4).
For the competitive TBG-binding experiments, concentration–response curves were fitted:2 r=rmin+rmax-rmin/1+IC50/X^HillSlope with rmin and rmax being the minimum and maximum anisotropy values, respectively. X is the concentration of added competitor. Equations that were used for the calculation of the ICX and Ki values in the TTR-binding assays (Supplementary Information, Section 3) were also used to determine the ICX and Ki values in TBG-binding assays without any changes, respectively. The single Kd, IC20, IC50 and Ki were determined based on replicates (n) in each experiment, and then the average and confidence intervals were determined based on the Kd, IC20, IC50 and Ki values from sperate experiments (N).
Alternatively, another approach to determine ICX, Kd and Ki values based on a theoretical model of ligand–protein binding biochemistry was taken as described in detail in the Supplementary Information file (Section 5). For this approach, R was used to fit the model to the data. The results obtained from the two approaches were compared in Section 3.4.
S5.2 Ki and IC50 estimation

[2] = molecular target: T2, Human TTR (Homo sapiens, UniProt P02766); test: Optimized competitive TTR-binding assay with FITC-T4 (fluorescence intensity readout); details: for T4EQ concentration (TTR binding): T4EQi = highest human blood concentration x T4-REPi; for Contribution to T4EQ concentration (TTR binding): mixture of highest human blood concentrations of five model compounds; for IC20: read-out: TTR IC20
T2 construct: Transthyretin (prealbumin, TTR) >95% from human plasma; purchased Sigma Aldrich (Zwijndrecht, The Netherlands); host or cells: human plasma
Experimental: All TTR-binding experiments were performed in black 96-well polystyrene nonbinding plates. Experimental wells and background wells were prepared in triplicate per plate. […] Fluorescence intensity (FI) was measured at λex = 485 ± 20 nm and λem = 528 ± 20 nm (CLARIOstar Plus microplate reader, BMG LABTECH).
To test the effect of the change in temperature and incubation time, a saturation experiment (N = 3, n = 3) was performed in Tris–HCl buffer (0.1 M Tris (Thermo Scientific, Rockford, USA), 0.1 M NaCl (Merck KGaA, Darmstadt, Germany), 1 mM EDTA (VWR International, B.V. Amsterdam, The Netherlands); pH 8.0). […] Two 96-well plates were prepared at the same time. After shaking for 5 min on a plate shaker, one prepared plate was incubated on ice (at 4 °C) and another plate was incubated at room temperature (22 °C). For both plates the fluorescence was measured at different time points: 5 min, 15 min, 60 min and 120 min.
First, 48 µL Tris–HCl buffer (pH 8.0) was pipetted to the wells, followed by 2 µL of the compound (in DMSO). […] Final solvent (DMSO) concentrations in all conditions amounted to 1%. All plates were shaken for 5 min on a plate shaker, followed by an incubation for 15 min at room temperature. The standard operation procedure (SOP) is provided in Supplementary Information file (Section 3).
Calculations of the ICX, Kd and Ki values of TTR-binding assays are described in the Supplementary Information file (Section 3).
3.7.5 The competitive TTR binding screening assay
3.7.8 Processing data to determine IC50 and calculate Ki value

[3] = molecular target: T2, Human TTR; details: FITC-T4 110 nM, human TTR 30 nM, 4 °C, 2 h; ref Hamers et al. [2020]; read-out: TTR literature Ki; cited from earlier work
[4] = molecular target: TTR; design: method as in Ren et al. [2016]; details: ref Ren et al. [2016]; read-out: TTR literature Ki; cited from earlier work
[5] = molecular target: TBG; design: method as in Ren et al. [2016]; details: ref Ren et al. [2016]; read-out: TBG Ki; cited from earlier work
[6] = TTR IC50, 110 nM FITC-T4, 30 nM TTR, RT, 15 min, average [95% CI]
[7] = TTR IC50 [95% CI], 55 nM FITC-T4, 30 nM TTR, RT (5 min)
[8] = TTR IC50 [95% CI], 55 nM FITC-T4, 30 nM TTR, RT (15 min)
[9] = TTR IC50 [95% CI], 55 nM FITC-T4, 30 nM TTR, RT (60 min)
[10] = TTR IC50 [95% CI], 55 nM FITC-T4, 30 nM TTR, RT (120 min)
[11] = TTR IC50 [95% CI], 55 nM FITC-T4, 30 nM TTR, on ice (120 min)
[12] = TTR Ki [95% CI], 55 nM FITC-T4, 30 nM TTR, RT (5 min)
[13] = TTR Ki [95% CI], 55 nM FITC-T4, 30 nM TTR, RT (15 min)
[14] = TTR Ki [95% CI], 55 nM FITC-T4, 30 nM TTR, RT (60 min)
[15] = TTR Ki [95% CI], 55 nM FITC-T4, 30 nM TTR, on ice (120 min)
[16] = TTR Ki, 110 nM FITC-T4, 30 nM TTR, RT, 15 min, derived from IC20, average [95% CI]

| Compound | inhibition of the FITC-T4 binding to TBG (in words) [1] | displacement of FITC-T4 from TTR (in words) ([2]; 110 nM FITC-T4, 30 nM TTR, RT) | Ki [3] | Ki [4] | T4EQ concentration (TTR binding) [2] | IC50 [2, 6] | IC50 [2, 7] | IC50 [2, 8] | IC50 [2, 9] | IC50 [2, 10] | IC50 [2, 11] | Ki [2, 12] | Ki [2, 13] | Ki [2, 14] | Ki [2, 15] | Ki [2, 16] | Contribution to T4EQ concentration (TTR binding) [2] | IC20 [2] | Ki ([2]; TTR Ki [95% CI], 55 nM FITC-T4, 30 nM TTR, RT (120 min)) | Ki [5] |
| --- | --- | --- | --- | --- | --- | --- | --- | --- | --- | --- | --- | --- | --- | --- | --- | --- | --- | --- | --- | --- |
| OC[C@@H](O)[C@@H](O)[C@H](O)[C@H](O)CO [D-mannitol] | no inhibition | Except for D-mannitol, all compounds displaced FITC-T4 from TTR | – | – | – | – | – | – | – | – | – | – | – | – | – | – | – | – | – | – |
| O=C(O)C(F)(F)C(F)(F)C(F)(F)C(F)(F)C(F)(F)C(F)(F)C(F)(F)F [PFOA, perfluorooctanoic acid] | No (or only limited) inhibition | – | 1.1 µM | 0.06 µM | 1.26 nM | 0.763 µM | 0.5 µM | 0.496 µM | 0.459 µM | 0.46 µM | 0.461 µM | 0.268 µM | 0.28 µM | 0.304 µM | 0.353 µM | 0.568 µM | 6.6% | 0.267 µM | – | – |
| O=S(=O)(O)C(F)(F)C(F)(F)C(F)(F)C(F)(F)C(F)(F)C(F)(F)C(F)(F)C(F)(F)F [PFOS, Perfluorooctanesulfonic acid] | No (or only limited) inhibition | – | 0.16 µM | – | 9.73 nM | 0.271 µM | 0.191 µM | 0.189 µM | 0.196 µM | 0.194 µM | 0.179 µM | 0.143 µM | 0.133 µM | 0.127 µM | 0.171 µM | 0.243 µM | 50.9% | 0.118 µM | 0.133 µM | – |
| O=C(O)C(F)(F)C(F)(F)C(F)(F)C(F)(F)C(F)(F)C(F)(F)C(F)(F)C(F)(F)C(F)(F)C(F)(F)C(F)(F)C(F)(F)F [PFTA, perfluorotridecanoic acid] | – | – | – | – | – | – | – | – | – | – | – | – | – | – | – | – | – | – | – | 23 µM |
